Assay [1] deals with Neuronal acetylcholine receptor; alpha4/beta2 (Rattus norvegicus, UniProt P09483+P12390). Description: Displacement of [3H]cytisine from alpha4beta2 nicotinic acetylcholine receptor in rat brain minus cerebellum membrane. In kind it is tissue-based.
Assay [2] addresses Neuronal acetylcholine receptor subunit alpha-7 (Rattus norvegicus, UniProt Q05941). Description: Displacement of [3H]A585539 from alpha7 nicotinic acetylcholine receptor in rat brain minus cerebellum membrane. In kind it is tissue-based.
For assay [3], the species on record is Rattus norvegicus. Kind of assay: Selectivity ratio of Ki for alpha7 nicotinic acetylcholine receptor to Ki for alpha4beta2 nicotinic acetylcholine receptor in rat brain minus cerebellum membrane. In kind it is tissue-based.
Assay [4] addresses T1, Neuronal acetylcholine receptor; alpha4/beta2 (Homo sapiens, UniProt P17787+P43681). Description: Agonist activity at human recombinant alpha4beta2 nicotinic acetylcholine receptor expressed in HEK293 cells assessed as changes in intracellular calcium level by FLIPR. In kind it is functional, cell-based.
Assay [5] addresses T1, Neuronal acetylcholine receptor; alpha4/beta2. Description: Agonist activity at human recombinant alpha4beta2 nicotinic acetylcholine receptor expressed in HEK293 cells assessed as changes in intracellular calcium level at 100 uM by FLIPR relative to nicotine. In kind it is functional, cell-based.
The target of assay [6] is T2, Neuronal acetylcholine receptor subunit alpha-7 (Homo sapiens, UniProt P36544). Kind of assay: Agonist activity at human recombinant alpha7 nicotinic acetylcholine receptor expressed in xenopus laevis oocytes by parallel oocyte electrophysiological assay. In kind it is functional, cell-based.
T2 sequence (P36544 whole entry): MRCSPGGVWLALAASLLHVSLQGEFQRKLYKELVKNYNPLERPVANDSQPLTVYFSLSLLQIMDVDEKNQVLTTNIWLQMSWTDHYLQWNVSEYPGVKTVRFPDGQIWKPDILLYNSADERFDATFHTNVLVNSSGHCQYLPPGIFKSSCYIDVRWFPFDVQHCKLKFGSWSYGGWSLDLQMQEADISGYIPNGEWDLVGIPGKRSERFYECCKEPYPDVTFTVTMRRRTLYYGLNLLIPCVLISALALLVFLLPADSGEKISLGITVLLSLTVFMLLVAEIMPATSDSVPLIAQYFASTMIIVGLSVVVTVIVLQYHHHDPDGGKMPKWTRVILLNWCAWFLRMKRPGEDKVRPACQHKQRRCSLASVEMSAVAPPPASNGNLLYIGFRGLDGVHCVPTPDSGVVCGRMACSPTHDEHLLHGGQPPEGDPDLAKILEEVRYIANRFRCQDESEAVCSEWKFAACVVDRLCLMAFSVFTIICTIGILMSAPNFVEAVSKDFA
Assay [7] has as its target T2, Neuronal acetylcholine receptor subunit alpha-7. Description: Agonist activity at human recombinant alpha7 nicotinic acetylcholine receptor expressed in xenopus laevis oocytes at 100 uM by parallel oocyte electrophysiological assay relative to acetylcholine. In kind it is functional, cell-based.

From ChEMBL document CHEMBL1137790, “Octahydropyrrolo[3,4-c]pyrrole: a diamine scaffold for construction of either alpha4beta2 or alpha7-selective nicotinic acetylcholine receptor (nAChR) ligands. Substitutions that switch subtype selectivity” (J Med Chem, 2009) come the findings set out here.

T1 sequence (P17787 whole entry): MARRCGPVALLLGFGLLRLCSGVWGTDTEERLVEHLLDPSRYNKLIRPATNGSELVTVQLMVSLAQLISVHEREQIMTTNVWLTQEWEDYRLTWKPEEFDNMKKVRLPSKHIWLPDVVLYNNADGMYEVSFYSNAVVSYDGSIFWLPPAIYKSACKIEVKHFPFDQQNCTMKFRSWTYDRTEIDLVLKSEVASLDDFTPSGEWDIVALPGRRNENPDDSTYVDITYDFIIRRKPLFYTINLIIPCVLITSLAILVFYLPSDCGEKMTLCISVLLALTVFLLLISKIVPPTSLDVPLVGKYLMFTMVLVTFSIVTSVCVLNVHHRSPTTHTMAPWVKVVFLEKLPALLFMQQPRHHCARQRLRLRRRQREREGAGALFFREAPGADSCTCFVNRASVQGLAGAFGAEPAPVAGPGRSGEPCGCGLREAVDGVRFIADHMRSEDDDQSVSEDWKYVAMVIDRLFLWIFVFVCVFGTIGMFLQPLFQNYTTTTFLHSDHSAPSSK
T1 sequence (P43681 whole entry): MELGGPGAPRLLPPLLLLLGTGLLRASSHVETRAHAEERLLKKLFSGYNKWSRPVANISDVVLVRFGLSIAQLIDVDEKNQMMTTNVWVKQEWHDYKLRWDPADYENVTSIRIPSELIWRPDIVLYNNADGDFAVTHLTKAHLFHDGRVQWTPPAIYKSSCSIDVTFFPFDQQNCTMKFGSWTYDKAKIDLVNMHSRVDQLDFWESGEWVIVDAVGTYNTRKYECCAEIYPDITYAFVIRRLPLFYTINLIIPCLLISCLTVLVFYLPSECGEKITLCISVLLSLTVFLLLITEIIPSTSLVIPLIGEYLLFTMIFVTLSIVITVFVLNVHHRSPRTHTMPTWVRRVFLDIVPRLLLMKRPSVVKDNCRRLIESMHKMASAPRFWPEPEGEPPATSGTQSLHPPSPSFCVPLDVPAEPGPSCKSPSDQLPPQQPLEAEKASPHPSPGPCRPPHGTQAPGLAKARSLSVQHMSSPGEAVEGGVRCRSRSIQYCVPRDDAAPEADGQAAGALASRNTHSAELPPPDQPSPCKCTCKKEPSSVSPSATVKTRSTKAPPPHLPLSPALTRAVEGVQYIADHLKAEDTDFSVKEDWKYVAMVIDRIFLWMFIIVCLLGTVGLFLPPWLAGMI
Chain of Neuronal acetylcholine receptor subunit alpha-7 (Rattus norvegicus, UniProt Q05941) (Q05941 whole entry): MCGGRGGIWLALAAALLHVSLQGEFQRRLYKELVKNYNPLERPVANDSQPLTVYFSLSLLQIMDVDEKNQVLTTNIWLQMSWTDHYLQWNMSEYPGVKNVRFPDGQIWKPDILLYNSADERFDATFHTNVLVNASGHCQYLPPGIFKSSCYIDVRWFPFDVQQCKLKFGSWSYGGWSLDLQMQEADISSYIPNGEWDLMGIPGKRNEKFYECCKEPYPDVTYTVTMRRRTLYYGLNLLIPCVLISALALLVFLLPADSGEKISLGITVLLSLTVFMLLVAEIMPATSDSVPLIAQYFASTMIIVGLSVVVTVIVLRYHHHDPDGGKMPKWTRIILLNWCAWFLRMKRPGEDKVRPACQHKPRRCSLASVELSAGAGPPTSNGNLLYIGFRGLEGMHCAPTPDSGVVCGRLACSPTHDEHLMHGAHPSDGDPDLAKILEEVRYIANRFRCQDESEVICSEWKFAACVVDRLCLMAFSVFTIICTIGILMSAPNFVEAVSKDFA
Chain of Neuronal acetylcholine receptor; alpha4/beta2 (Rattus norvegicus, UniProt P09483+P12390) (P09483 whole entry): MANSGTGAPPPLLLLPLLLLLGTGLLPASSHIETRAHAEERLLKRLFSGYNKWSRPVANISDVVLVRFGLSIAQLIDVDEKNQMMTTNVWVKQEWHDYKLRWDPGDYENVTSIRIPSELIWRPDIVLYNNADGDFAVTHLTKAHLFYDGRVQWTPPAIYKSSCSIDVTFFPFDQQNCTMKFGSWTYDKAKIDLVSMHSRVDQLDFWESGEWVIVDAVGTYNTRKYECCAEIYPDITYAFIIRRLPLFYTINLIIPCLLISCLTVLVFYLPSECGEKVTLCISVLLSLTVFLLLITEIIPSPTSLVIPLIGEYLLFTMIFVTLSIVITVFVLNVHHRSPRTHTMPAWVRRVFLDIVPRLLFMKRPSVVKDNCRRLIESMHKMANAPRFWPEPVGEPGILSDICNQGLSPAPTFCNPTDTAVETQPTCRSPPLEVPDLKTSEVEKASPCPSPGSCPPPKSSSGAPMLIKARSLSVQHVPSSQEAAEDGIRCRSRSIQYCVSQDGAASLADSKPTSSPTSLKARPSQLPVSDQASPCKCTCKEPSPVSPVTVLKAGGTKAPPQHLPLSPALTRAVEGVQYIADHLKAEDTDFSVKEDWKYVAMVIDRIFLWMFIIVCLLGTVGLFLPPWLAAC
Chain of Neuronal acetylcholine receptor; alpha4/beta2 (Rattus norvegicus, UniProt P09483+P12390) (P12390 whole entry): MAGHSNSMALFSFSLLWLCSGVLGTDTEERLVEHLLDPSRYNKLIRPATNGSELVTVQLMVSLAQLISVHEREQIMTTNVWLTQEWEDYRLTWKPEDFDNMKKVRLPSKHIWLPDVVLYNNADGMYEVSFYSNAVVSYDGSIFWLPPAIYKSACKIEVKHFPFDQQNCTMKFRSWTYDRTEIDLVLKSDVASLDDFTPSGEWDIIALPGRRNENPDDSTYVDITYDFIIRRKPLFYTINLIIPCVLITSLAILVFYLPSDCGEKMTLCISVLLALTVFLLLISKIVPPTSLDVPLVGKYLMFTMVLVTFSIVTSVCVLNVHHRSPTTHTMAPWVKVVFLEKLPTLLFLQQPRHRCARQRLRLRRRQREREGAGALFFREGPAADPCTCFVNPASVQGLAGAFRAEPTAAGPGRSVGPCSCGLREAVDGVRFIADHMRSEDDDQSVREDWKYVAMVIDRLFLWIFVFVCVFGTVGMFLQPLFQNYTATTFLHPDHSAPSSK

For the molecule `CN1C[C@@H]2CN(c3ccc(-c4ccccc4)cn3)C[C@@H]2C1`, the Ki is more than 100000 nM in assay [1] and 17 nM in assay [2]. In addition, the Ratio Ki in assay [3] is more than 6000.

With `c1ccc(-c2ccc(N3C[C@H]4CNC[C@H]4C3)cn2)cc1`, the results for the Ki in assay [1] and in assay [2] were 96 nM and 8.4 nM, respectively. Besides, the Ratio Ki in assay [3] was found to be 0.09.

Consider `C[N+]1(C)C[C@H]2CN(c3ccc(Cl)nc3)C[C@H]2C1`, for which the values for the Ki in assay [1] and in assay [2] were 210 nM and 340 nM, respectively. The Ratio Ki in assay [3] was 1.6.

Take `c1ccc(-c2ccc(N3C[C@H]4CNC[C@H]4C3)cc2)cc1`: the Ki in assay [1] was more than 10000 nM; in assay [2] it was 28 nM. Also, the Ratio Ki in assay [3] is more than 350.

Turning to `c1cncc(N2C[C@H]3CNC[C@H]3C2)c1`, the Ki in assay [1] is 0.12 nM; in assay [2], 51 nM. Also, in assay [3], the Ratio Ki stood at 420. In addition, the EC50 is 40 nM in assay [4] and 4470 nM in assay [6]. The Activity was 146% in assay [5] and 129% in assay [7].

In the case of `c1ccc(-c2ccc(N3C[C@H]4CNC[C@H]4C3)nn2)cc1`, the Ki turned out to be 5320 nM in assay [1] and 17.5 nM in assay [2]. The Ratio Ki in assay [3] turned out to be 300. In addition, the EC50 was more than 100000 nM in assay [4] and 1150 nM in assay [6]. The figures for the Activity in assay [5] and in assay [7] were less than 10% and 29%, respectively.

Consider `Cc1cccc(-c2ccc(N3C[C@H]4CN(C)C[C@H]4C3)nn2)c1`, for which the Ki in assay [1] is more than 100000 nM; in assay [2] it was 4.42 nM. The Ratio Ki in assay [3] was more than 22000.

As to `c1ncc(N2C[C@H]3CNC[C@H]3C2)cc1N1CCOCC1`, the Ki in assay [1] is 47 nM; in assay [2], more than 10000 nM. In addition, the Ratio Ki in assay [3] is more than 210.

`CCN1C[C@@H]2CN(c3ccc(-c4ccccc4)nn3)C[C@@H]2C1`: the results for the Ki in assay [1] and in assay [2] were more than 100000 nM and 330 nM, respectively. For the same molecule, the Ratio Ki in assay [3] is more than 300.

In the case of `CN1C[C@@H]2CN(c3ccc(-c4cccc(-c5ccccc5)c4)nc3)C[C@@H]2C1`, the inhibitory constant (Ki) in assay [1] is 9800 nM; in assay [2] it was 44 nM. Further, the Ratio Ki in assay [3] turned out to be 220.

For `CN1C[C@@H]2CN(c3ccc(-c4cccc(O)c4)nn3)C[C@@H]2C1`, the Ki was found to be 21000 nM in assay [1] and 7.9 nM in assay [2]. Also, the Ratio Ki in assay [3] was found to be 2660.

On to `Cc1cccc(-c2ccc(N3C[C@H]4CN(C)C[C@H]4C3)cn2)c1`, for which the Ki in assay [1] turned out to be 750 nM; in assay [2], 6.7 nM. In addition, in assay [3], the Ratio Ki is 112.

For the molecule `COc1cncc(N2C[C@H]3CNC[C@H]3C2)c1`, the results for the Ki in assay [1] and in assay [2] were 0.081 nM and 240 nM, respectively. The Ratio Ki in assay [3] was determined as 2900.

As to `COc1ccc(-c2ccc(N3C[C@H]4CN(C)C[C@H]4C3)nn2)cc1`, the values for the inhibition constant Ki in assay [1] and in assay [2] were more than 100000 nM and 22 nM, respectively. The Ratio Ki in assay [3] was more than 4500.

`Cc1cc(C)cc(-c2ccc(N3C[C@H]4CN(C)C[C@H]4C3)nn2)c1`: the Ki in assay [1] was more than 100000 nM; in assay [2], more than 10000 nM.

With `c1ccc(-c2ccc(N3C[C@H]4CNC[C@H]4C3)nc2)cc1`, the inhibition constant Ki in assay [1] is more than 100000 nM; in assay [2] it was 30 nM. For the same molecule, the Ratio Ki in assay [3] is more than 3300.

As to `CN1C[C@@H]2CN(c3ccc(-c4ccccc4)cc3)C[C@@H]2C1`, the figures for the Ki in assay [1] and in assay [2] were more than 100000 nM and 12 nM, respectively. In addition, the Ratio Ki in assay [3] was more than 8300.

For `Cc1ccccc1-c1ccc(N2C[C@H]3CN(C)C[C@H]3C2)nn1`, the inhibition constant Ki in assay [1] was more than 10000 nM; in assay [2], 690 nM. Further, in assay [3], the Ratio Ki is more than 14.

In the case of `C[N+]1(C)C[C@H]2CN(c3ccc(-c4ccccc4)nn3)C[C@H]2C1`, the Ki in assay [1] is more than 10000 nM; in assay [2], 5.98 nM. Besides, the Ratio Ki in assay [3] is more than 1600.

For `CN1C[C@@H]2CN(c3cncc(-c4ccccc4)c3)C[C@@H]2C1`, the Ki was 51 nM in assay [1] and more than 10000 nM in assay [2]. In addition, the Ratio Ki in assay [3] was more than 190.

Take `CN1C[C@@H]2CN(c3ccc(-c4ccccc4)nn3)C[C@@H]2C1`: the Ki in assay [1] was more than 100000 nM; in assay [2] it was 10.8 nM. Moreover, the Ratio Ki in assay [3] is more than 9200. Besides, the figures for the half-maximal effective concentration (EC50) in assay [4] and in assay [6] were more than 100000 nM and 4260 nM, respectively. Besides, the Activity in assay [5] was less than 10%; in assay [7], 52%.

For the molecule `CCOc1cncc(N2C[C@H]3CNC[C@H]3C2)c1`, the Ki in assay [1] worked out at 0.035 nM; in assay [2], 1440 nM. In assay [3], the Ratio Ki came to 41000. In addition, the results for the EC50 in assay [4] and in assay [6] were 370 nM and more than 100000 nM, respectively. Also, the Activity in assay [5] came out at 118%; in assay [7], 37%.

With `CN1C[C@@H]2CN(c3ccc(Cl)nc3)C[C@@H]2C1`, the Ki in assay [1] was 38 nM; in assay [2] it was more than 10000 nM. Further, in assay [3], the Ratio Ki was more than 260.

Regarding `Oc1cncc(N2C[C@H]3CNC[C@H]3C2)c1`, the inhibition constant Ki is 0.75 nM in assay [1] and more than 10000 nM in assay [2]. Besides, in assay [3], the Ratio Ki was more than 13000.

In the case of `Brc1ccc(N2C[C@H]3CNC[C@H]3C2)cn1`, the Ki in assay [1] came to 0.28 nM; in assay [2] it was 290 nM. In addition, in assay [3], the Ratio Ki is 1000.

For `Clc1ccc(N2C[C@H]3CNC[C@H]3C2)cn1`, the Ki in assay [1] stood at 0.2 nM; in assay [2], 180 nM. Besides, in assay [3], the Ratio Ki was 900.

For the molecule `c1ccc(N2C[C@H]3CNC[C@H]3C2)nc1`, the Ki in assay [1] is 260 nM; in assay [2] it was more than 10000 nM. Besides, in assay [3], the Ratio Ki is more than 38.

`CN1C[C@@H]2CN(c3ccc(-c4cccc([N+](=O)[O-])c4)nc3)C[C@@H]2C1`: the values for the inhibition constant Ki in assay [1] and in assay [2] were 2600 nM and 30 nM, respectively. The Ratio Ki in assay [3] turned out to be 87.

With `CN1C[C@@H]2CN(c3cccnc3)C[C@@H]2C1`, the inhibition constant (Ki) in assay [1] was 26 nM; in assay [2], 1590 nM. Further, in assay [3], the Ratio Ki came to 61.

In the case of `CN1C[C@@H]2CN(c3ccc(-c4ccccc4)nc3)C[C@@H]2C1`, the Ki came to 28000 nM in assay [1] and 9.6 nM in assay [2]. Besides, the Ratio Ki in assay [3] was 0.0003.

`c1ccc(-c2cncc(N3C[C@H]4CNC[C@H]4C3)c2)cc1`: the inhibition constant Ki came out at 0.16 nM in assay [1] and 4560 nM in assay [2]. Further, the Ratio Ki in assay [3] came to 28000. Further, the concentration for a half-maximal effect (EC50) in assay [4] and in assay [6] was more than 100000 nM each time. Also, the Activity in assay [5] and in assay [7] was less than 10% in each case.

For `c1cc(N2C[C@H]3CNC[C@H]3C2)ccn1`, the inhibitory constant (Ki) in assay [1] and in assay [2] was more than 10000 nM throughout.

As for `CC(C)Oc1cncc(N2C[C@H]3CNC[C@H]3C2)c1`, the Ki is 0.051 nM in assay [1] and more than 10000 nM in assay [2]. In addition, in assay [3], the Ratio Ki was more than 200000.

For `CCCOc1cncc(N2C[C@H]3CNC[C@H]3C2)c1`, the Ki is 0.041 nM in assay [1] and more than 10000 nM in assay [2]. For the same molecule, in assay [3], the Ratio Ki was more than 240000.

With `CN1C[C@@H]2CN(c3ccc(-c4ccc(O)cc4)nn3)C[C@@H]2C1`, the Ki in assay [1] is more than 10000 nM; in assay [2], 5.3 nM. In addition, in assay [3], the Ratio Ki is more than 1800.

Turning to `COc1cccc(-c2ccc(N3C[C@H]4CN(C)C[C@H]4C3)cn2)c1`, the results for the Ki in assay [1] and in assay [2] were more than 100000 nM and 5 nM, respectively. Further, the Ratio Ki in assay [3] is more than 2000.

Take `CN1C[C@@H]2CN(c3ccc(-c4ccc5[nH]ccc5c4)nn3)C[C@@H]2C1`: the inhibitory constant (Ki) in assay [1] was more than 100000 nM; in assay [2], 0.24 nM. Moreover, the Ratio Ki in assay [3] was more than 400000. The EC50 was more than 100000 nM in assay [4] and 320 nM in assay [6]. For the same molecule, the Activity in assay [5] was less than 10%; in assay [7], 87%.

On to `c1ccc(COc2cncc(N3C[C@H]4CNC[C@H]4C3)c2)cc1`, for which the Ki in assay [1] is 0.058 nM; in assay [2], more than 10000 nM. Moreover, the Ratio Ki in assay [3] was more than 170000.

For the molecule `Brc1cncc(N2C[C@H]3CNC[C@H]3C2)c1`, the Ki in assay [1] came to 0.06 nM; in assay [2], 66 nM. The Ratio Ki in assay [3] is 1100.

Take `Cc1ccc(-c2ccc(N3C[C@H]4CN(C)C[C@H]4C3)nn2)cc1`: the Ki in assay [1] was more than 100000 nM; in assay [2] it was 11.6 nM. Moreover, in assay [3], the Ratio Ki is more than 8600.
